{"source": "ChEMBL document CHEMBL3507680", "about": "“University of Dundee, Gates Library screen for HepG2 cell viability”", "key": {"[1]": {"experiment": "Human HepG2 cell viability dose-response assay", "format": "toxicity, cell-based"}, "[2]": {"experiment": "Human HepG2 cell viability assay in 384 well format", "format": "toxicity, cell-based", "set-up": "dose 125 nL, time 70.5 hour; concentration not given beside the values", "conditions": "HepG2 cells, read-out: Inhibition"}}, "note": "Where “and” joins values, the source holds several entries; their conditions need not be identical. Equal values may be shown once.", "data": [{"compound": "Cn1nccc1CN1CCOC(c2cccc(Nc3ccccn3)n2)C1", "note": "(centres undefined)", "values": [{"measurement": "HILLSLOPE", "setting": "[1]", "result": "6.527 and 3.177"}, {"measurement": "TOP", "setting": "[1]", "result": "100.3 and 104.2"}, {"measurement": "pXC50", "setting": "[1]", "result": "5.026 and 5.036"}, {"measurement": "cytotoxicity at 70.5 h", "setting": "[2]", "result": 84.1, "unit": "%"}]}, {"compound": "O=C(CN1CCc2sccc2C1)Nc1ccnc2ccnn12", "values": [{"measurement": "BOTTOM", "setting": "[1]", "result": "-24.28 and -16.58"}, {"measurement": "HILLSLOPE", "setting": "[1]", "result": "0.9799 and 1.026"}, {"measurement": "TOP", "setting": "[1]", "result": 100}, {"measurement": "pXC50", "setting": "[1]", "result": "5.87 and 5.888"}, {"measurement": "cytotoxicity at 70.5 h", "setting": "[2]", "result": 74.2, "unit": "%"}]}, {"compound": "CCn1cc(CN(C)S(=O)(=O)c2ccc(Cl)cc2)cn1", "values": [{"measurement": "BOTTOM", "setting": "[1]", "result": 0}, {"measurement": "HILLSLOPE", "setting": "[1]", "result": 0}, {"measurement": "TOP", "setting": "[1]", "result": 0}, {"measurement": "pXC50", "setting": "[1]", "result": "< 4.53"}, {"measurement": "cytotoxicity at 70.5 h", "setting": "[2]", "result": 108, "unit": "%"}]}, {"compound": "CNc1nc(C)cc(NCc2cc(C)cc3c(C)c(C)[nH]c23)n1", "values": [{"measurement": "BOTTOM", "setting": "[1]", "result": "-7.457 and -8.772"}, {"measurement": "HILLSLOPE", "setting": "[1]", "result": "3.23 and 3.681"}, {"measurement": "TOP", "setting": "[1]", "result": "100 and 99.18"}, {"measurement": "pXC50", "setting": "[1]", "result": "5.482 and 5.451"}, {"measurement": "cytotoxicity at 70.5 h", "setting": "[2]", "result": 98.8, "unit": "%"}]}, {"compound": "Cl.Cn1ccnc1N1CCN(C(=O)Cc2ccc(F)cc2)CC1", "values": [{"measurement": "BOTTOM", "setting": "[1]", "result": 0}, {"measurement": "HILLSLOPE", "setting": "[1]", "result": 0}, {"measurement": "TOP", "setting": "[1]", "result": 0}, {"measurement": "pXC50", "setting": "[1]", "result": "< 4.53"}, {"measurement": "cytotoxicity at 70.5 h", "setting": "[2]", "result": 75, "unit": "%"}]}, {"compound": "Oc1cc(C2CCCN(Cc3cccs3)C2)nc(-c2ccccn2)n1", "note": "(centres undefined)", "values": [{"measurement": "BOTTOM", "setting": "[1]", "result": "-7.306 and -6.343"}, {"measurement": "HILLSLOPE", "setting": "[1]", "result": "1.489 and 1.356"}, {"measurement": "TOP", "setting": "[1]", "result": 100}, {"measurement": "pXC50", "setting": "[1]", "result": "4.83 and 4.808"}, {"measurement": "cytotoxicity at 70.5 h", "setting": "[2]", "result": 60.4, "unit": "%"}]}, {"compound": "CCn1nc(C)c(CN(CCCOC)Cc2ccccn2)c1C", "values": [{"measurement": "cytotoxicity at 70.5 h", "setting": "[2]", "result": 8.89, "unit": "%"}]}, {"compound": "CCOc1ccc(CC(CNC(=O)c2ccoc2C)C(N)=O)cc1", "note": "(centres undefined)", "values": [{"measurement": "cytotoxicity at 70.5 h", "setting": "[2]", "result": -10.1, "unit": "%"}]}, {"compound": "COCCN1CCN(Cc2cnc(C)nc2)CC1", "values": [{"measurement": "cytotoxicity at 70.5 h", "setting": "[2]", "result": -6.04, "unit": "%"}]}, {"compound": "CC(NC(=O)Nc1nccs1)c1ccncc1", "note": "(centres undefined)", "values": [{"measurement": "cytotoxicity at 70.5 h", "setting": "[2]", "result": -10.5, "unit": "%"}]}, {"compound": "CCNc1cc2c(nn1)CCN(C(=O)Cc1c(C)nn(C)c1C)C2", "values": [{"measurement": "cytotoxicity at 70.5 h", "setting": "[2]", "result": -2.18, "unit": "%"}]}, {"compound": "Cc1cccnc1NC(=O)NC(C)Cn1cccn1", "note": "(centres undefined)", "values": [{"measurement": "cytotoxicity at 70.5 h", "setting": "[2]", "result": -7.34, "unit": "%"}]}, {"compound": "Cc1c[nH]nc1C1CCN(c2cnccn2)C1", "note": "(centres undefined)", "values": [{"measurement": "cytotoxicity at 70.5 h", "setting": "[2]", "result": 5.06, "unit": "%"}]}, {"compound": "CN(Cc1cccc(Cl)c1)Cc1nnsc1Cl", "values": [{"measurement": "cytotoxicity at 70.5 h", "setting": "[2]", "result": -5.2, "unit": "%"}]}, {"compound": "Cn1c(-c2cc3n(n2)CCCN(CC(=O)O)C3)nc2ccccc21", "values": [{"measurement": "cytotoxicity at 70.5 h", "setting": "[2]", "result": 22.8, "unit": "%"}]}, {"compound": "COc1c(CNCc2cccnc2OC2CCCC2)c(C)nn1C", "values": [{"measurement": "cytotoxicity at 70.5 h", "setting": "[2]", "result": -1.47, "unit": "%"}]}, {"compound": "Cc1cncc(C(=O)N2CCC3(CC2)C(=O)Nc2ccccc23)c1", "values": [{"measurement": "cytotoxicity at 70.5 h", "setting": "[2]", "result": -7.06, "unit": "%"}]}, {"compound": "O=C(CCc1ccc2c(c1)OCO2)N1CCCC(n2cccn2)C1", "note": "(centres undefined)", "values": [{"measurement": "cytotoxicity at 70.5 h", "setting": "[2]", "result": 13.3, "unit": "%"}]}, {"compound": "CCN1CCN(S(=O)(=O)c2cnc(NC(C)=O)s2)CC1", "values": [{"measurement": "cytotoxicity at 70.5 h", "setting": "[2]", "result": 17.3, "unit": "%"}]}, {"compound": "Cc1cc(C)c2[nH]c(C(=O)NCCN3CCOC3=O)c(C)c2c1", "values": [{"measurement": "cytotoxicity at 70.5 h", "setting": "[2]", "result": 1.29, "unit": "%"}]}, {"compound": "Cc1nc(CN2C[C@@H]3CN(C(=O)Cc4ccccn4)C[C@@H]3C2)cs1", "values": [{"measurement": "cytotoxicity at 70.5 h", "setting": "[2]", "result": -4.03, "unit": "%"}]}, {"compound": "COC(=O)N1CCc2ccccc2C1C(=O)NCc1nc(C)no1", "note": "(centres undefined)", "values": [{"measurement": "cytotoxicity at 70.5 h", "setting": "[2]", "result": -7.1, "unit": "%"}]}, {"compound": "Cc1cc(C)n(CC2CCCN2C(=O)CCCc2ccccn2)n1", "note": "(centres undefined)", "values": [{"measurement": "cytotoxicity at 70.5 h", "setting": "[2]", "result": -5.04, "unit": "%"}]}, {"compound": "CCc1ccc(C(=O)NCCNc2ncccn2)cc1", "values": [{"measurement": "cytotoxicity at 70.5 h", "setting": "[2]", "result": 11.9, "unit": "%"}]}, {"compound": "COc1ncc(C2CC(=O)NCc3nc4ccccn4c32)cn1", "note": "(centres undefined)", "values": [{"measurement": "cytotoxicity at 70.5 h", "setting": "[2]", "result": -13.5, "unit": "%"}]}, {"compound": "O=C(Nc1cccc(OC(F)F)c1)C1CN(S(=O)(=O)C2CC2)C1", "values": [{"measurement": "cytotoxicity at 70.5 h", "setting": "[2]", "result": 0.345, "unit": "%"}]}, {"compound": "CC1(C)CNC(=O)CN(C(=O)COc2ccccc2)C1", "values": [{"measurement": "cytotoxicity at 70.5 h", "setting": "[2]", "result": -14.2, "unit": "%"}]}, {"compound": "Cn1cccc1C(=O)N1CC[C@@H]2[C@@H]1CC(=O)N2CCN1CCOCC1", "values": [{"measurement": "cytotoxicity at 70.5 h", "setting": "[2]", "result": -4.61, "unit": "%"}]}, {"compound": "Cc1cc(CNC(=O)c2cnoc2C)c(C)o1", "values": [{"measurement": "cytotoxicity at 70.5 h", "setting": "[2]", "result": -12, "unit": "%"}]}, {"compound": "c1coc(CN2CCC3(CC2)CC(N2CCCC2)CO3)c1", "note": "(centres undefined)", "values": [{"measurement": "cytotoxicity at 70.5 h", "setting": "[2]", "result": 33.2, "unit": "%"}]}, {"compound": "NS(=O)(=O)c1cnn(CCC(=O)N(Cc2ccccc2)C2CC2)c1", "values": [{"measurement": "cytotoxicity at 70.5 h", "setting": "[2]", "result": -7.26, "unit": "%"}]}, {"compound": "O=C(CC1CCCC1)NCCS(=O)(=O)N1CCN(c2ccccc2)CC1", "values": [{"measurement": "cytotoxicity at 70.5 h", "setting": "[2]", "result": -3.36, "unit": "%"}]}, {"compound": "N#Cc1cc(Cl)ccc1N1CCOC(C(N)=O)C1", "note": "(centres undefined)", "values": [{"measurement": "cytotoxicity at 70.5 h", "setting": "[2]", "result": -0.791, "unit": "%"}]}, {"compound": "CN(C)c1cnn(CC(=O)N2CCN(Cc3cccs3)CC2)c(=O)c1", "values": [{"measurement": "cytotoxicity at 70.5 h", "setting": "[2]", "result": -8.39, "unit": "%"}]}, {"compound": "CN(Cc1cccnc1)[C@@H]1CN(CC2CC2)[C@@H]2CCCO[C@H]12", "values": [{"measurement": "cytotoxicity at 70.5 h", "setting": "[2]", "result": -2.78, "unit": "%"}]}, {"compound": "CS(=O)(=O)CCCC(=O)Nc1cc(Cl)c(Cl)cn1", "values": [{"measurement": "cytotoxicity at 70.5 h", "setting": "[2]", "result": 0.966, "unit": "%"}]}]}
